Test results reported in ChEMBL document CHEMBL4177539, “Discovery of N-((3R,4R)-4-Fluoro-1-(6-((3-methoxy-1-methyl-1H-pyrazol-4-yl)amino)-9-methyl-9H-purin-2-yl)pyrrolidine-3-yl)acrylamide (PF-06747775) through Structure-Based Drug Design: A High Affinity Irreversible Inhibitor Targeting Oncogenic EGFR Mutants with Selectivity over Wild-Type EGFR” (J Med Chem, 2017).

Key:
[1] = species on record: Homo sapiens; assay: Selectivity index, ratio of IC50 for wild-type EGFR autophosphorylation in human A549 cells to IC50 for EGFR T790M/L858R double mutant autophosphorylation in human H1975 cells; type: cell-based
[2] = molecular target: Epidermal growth factor receptor (Homo sapiens, UniProt P00533, EX19DEL/T790M)
[3] = in vitro; settings: human, liver microsomes
[4] = physchem; settings: octanol/water
[5] = molecular target: Epidermal growth factor receptor (Homo sapiens, UniProt P00533, EX19DEL)
[6] = molecular target: Epidermal growth factor receptor (Homo sapiens, UniProt P00533)
Epidermal growth factor receptor (Homo sapiens, UniProt P00533), sequence (P00533 whole entry): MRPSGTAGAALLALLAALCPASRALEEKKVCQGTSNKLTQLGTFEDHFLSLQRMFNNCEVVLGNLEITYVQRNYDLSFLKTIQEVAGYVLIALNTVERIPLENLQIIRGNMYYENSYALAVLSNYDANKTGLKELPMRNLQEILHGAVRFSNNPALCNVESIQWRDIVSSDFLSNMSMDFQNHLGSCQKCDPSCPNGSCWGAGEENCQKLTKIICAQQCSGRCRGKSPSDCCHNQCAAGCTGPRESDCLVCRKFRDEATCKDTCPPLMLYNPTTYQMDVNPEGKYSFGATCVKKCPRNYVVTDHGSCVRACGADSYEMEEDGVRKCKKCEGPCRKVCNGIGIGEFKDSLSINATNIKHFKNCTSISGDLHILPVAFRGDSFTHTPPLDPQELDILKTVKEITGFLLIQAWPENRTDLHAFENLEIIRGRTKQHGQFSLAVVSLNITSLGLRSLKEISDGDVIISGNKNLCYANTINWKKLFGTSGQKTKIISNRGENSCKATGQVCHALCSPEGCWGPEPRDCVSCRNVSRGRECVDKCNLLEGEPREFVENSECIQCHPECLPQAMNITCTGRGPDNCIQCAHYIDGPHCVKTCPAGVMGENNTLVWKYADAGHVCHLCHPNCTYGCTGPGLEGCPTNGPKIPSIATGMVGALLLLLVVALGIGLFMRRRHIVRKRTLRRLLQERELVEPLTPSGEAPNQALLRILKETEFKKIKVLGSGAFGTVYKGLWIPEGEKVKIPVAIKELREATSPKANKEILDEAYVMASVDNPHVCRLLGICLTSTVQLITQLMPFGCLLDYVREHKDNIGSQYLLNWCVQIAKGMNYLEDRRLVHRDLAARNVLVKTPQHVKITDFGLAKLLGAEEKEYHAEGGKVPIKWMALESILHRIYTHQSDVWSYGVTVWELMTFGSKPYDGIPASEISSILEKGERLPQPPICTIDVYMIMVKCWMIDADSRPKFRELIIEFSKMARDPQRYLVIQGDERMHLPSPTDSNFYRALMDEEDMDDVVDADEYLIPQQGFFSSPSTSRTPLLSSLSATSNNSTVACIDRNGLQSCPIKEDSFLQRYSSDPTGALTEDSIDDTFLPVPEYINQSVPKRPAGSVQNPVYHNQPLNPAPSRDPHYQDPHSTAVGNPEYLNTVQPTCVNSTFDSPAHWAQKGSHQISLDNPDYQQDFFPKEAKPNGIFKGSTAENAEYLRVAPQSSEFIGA

Epidermal growth factor receptor (Homo sapiens, UniProt P00533, EX19DEL/T790M), sequence (P00533 whole entry, looked up, stated change not applied): as the sequence (P00533 whole entry) above
Epidermal growth factor receptor (Homo sapiens, UniProt P00533, EX19DEL), sequence (P00533 whole entry, looked up, stated change not applied): as the sequence (P00533 whole entry) above

With `C=CC(=O)N[C@@H]1CN(c2nc(Nc3cn(C)nc3C)c3ncn(C(C)C)c3n2)C[C@H]1F` the Ratio IC50 [1] was 56, the IC50 [2] was 4 nM and the microsomal CLint at […], 1 µM [3] was 30 µL/min/mg. It also gave a logD [4] of 2.6, an IC50 [5] of 16 nM and an IC50 [6] of 1450 nM.
With `C=CC(=O)N[C@@H]1CCN(c2nc(Nc3cnn(C)c3)c3ncn(C(C)C)c3n2)C1` the logD [4] was 2.7.
With `C=CC(=O)N1CC[C@@H](Nc2nc(Nc3ccc(N4CCN(C)CC4)cc3)c3ncn(C(C)C)c3n2)C1` the Ratio IC50 [1] was 13 and the logD [4] was 2.5.
Compound `C=CC(=O)N[C@@H]1CCN(c2nc(Nc3ccc(N4CCN(C)CC4)cc3)c3ncn(C(C)C)c3n2)C1` has a logD [4] of 2.
In the case of `C=CC(=O)N1C[C@@H]2CN(c3nc(Nc4cnn(C)c4)c4ncn(C(C)C)c4n3)C[C@@H]2C1`, the Ratio IC50 [1] is reported as 16 and the logD [4] is reported as 2.2.
Compound `C=CC(=O)N[C@H]1CCN(c2nc(Nc3ccc(N4CCN(C)CC4)cc3)c3ncn(C(C)C)c3n2)C1` has a Ratio IC50 [1] of 15 and a logD [4] of 2.2.
Compound `C=CC(=O)N[C@H]1CCN(c2nc(Nc3cnn(C)c3)c3ncn(C(C)C)c3n2)C1` has a Ratio IC50 [1] of 13 and a logD [4] of 2.3.
